Laboratory results taken from patent US11712438B2, “Phenyl derivatives as PGE2 receptor modulators” (IDORSIA PHARMACEUTICALS LTD, priority 2017, dated 2023).

How the values were obtained:
Assay in all cases: cell-based
[1] = biological target: PTRGER4 (EP4) (Homo sapiens, UniProt P35408);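 further: assay plate preincubated 15 min at 37 °C, after which PGE2 was added at 20 nM final and incubation continued 120 min at 37 °C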
[2] = biological target: EP4 (Homo sapiens, UniProt P35408);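 further: inhibition of PGE2-evoked (6 nM) cAMP accumulation in BT549 breast cancer cells endogenously expressing EP4, cAMP read by HTRF competitive immunoassay after 30 min at room temperature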
[3] = biological target: PTGER2 (EP2) (Homo sapiens, UniProt P43116)
[4] = biological target: EP2 (Homo sapiens, UniProt P43116);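 further: SF295 glioblastoma cells with endogenous EP2 only, PGE2-stimulated cAMP accumulation read by HTRF competitive immunoassay, 45 min pre-incubation then 30 min at room temperature, IBMX in buffer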
Sequence of EP2 (P43116 whole entry): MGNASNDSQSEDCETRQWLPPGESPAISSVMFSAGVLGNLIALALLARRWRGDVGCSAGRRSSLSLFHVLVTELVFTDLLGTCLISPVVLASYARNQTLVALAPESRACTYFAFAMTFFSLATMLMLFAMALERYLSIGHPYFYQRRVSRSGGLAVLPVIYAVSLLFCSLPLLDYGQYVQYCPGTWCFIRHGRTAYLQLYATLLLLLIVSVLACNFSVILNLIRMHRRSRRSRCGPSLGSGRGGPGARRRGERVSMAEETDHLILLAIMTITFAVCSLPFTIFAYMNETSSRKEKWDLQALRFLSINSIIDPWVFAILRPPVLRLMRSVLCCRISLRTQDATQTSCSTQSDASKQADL

Sequence of EP4 (P35408 whole entry): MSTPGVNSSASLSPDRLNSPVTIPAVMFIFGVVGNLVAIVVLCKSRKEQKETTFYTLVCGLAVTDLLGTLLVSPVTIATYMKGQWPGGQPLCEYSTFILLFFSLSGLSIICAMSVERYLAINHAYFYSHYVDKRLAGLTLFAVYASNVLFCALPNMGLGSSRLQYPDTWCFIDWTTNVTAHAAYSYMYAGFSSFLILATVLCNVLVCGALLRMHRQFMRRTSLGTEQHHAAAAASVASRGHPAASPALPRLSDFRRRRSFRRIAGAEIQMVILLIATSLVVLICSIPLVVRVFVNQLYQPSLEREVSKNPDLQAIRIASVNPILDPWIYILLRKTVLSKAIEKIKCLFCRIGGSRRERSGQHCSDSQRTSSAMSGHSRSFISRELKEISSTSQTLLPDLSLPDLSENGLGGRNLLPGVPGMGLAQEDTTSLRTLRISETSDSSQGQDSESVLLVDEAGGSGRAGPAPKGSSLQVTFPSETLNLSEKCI
Sequence of PTRGER4 (EP4) (P35408 whole entry): as above
Sequence of PTGER2 (EP2) (P43116 whole entry): as the sequence (P43116 whole entry) above

Structure (SMILES) | IC50 [1] | IC50 [2] | IC50 [3] | IC50 [4]
CCc1cc(-c2cc(NCCc3c(F)cccc3F)ncn2)sc1C(=O)O [Example 53, 5-{6-[2-(2,6-Difluoro-phenyl)-ethylamino]-pyrimidin-4-yl}-3-ethyl-thiophene-2-carboxylic acid] | 472 nM | 221 nM | 437 nM | 63 nM
CC(C)Cc1cc(-c2cc(NCCc3c(F)cc(Br)cc3F)ncn2)ccc1C(=O)O [Example 38, 4-{6-[2-(4-Bromo-2,6-difluoro-phenyl)-ethylamino]-pyrimidin-4-yl}-2-isobutyl-benzoic acid] | 202 nM | 81 nM | 277 nM | 128 nM
CCc1cc(-c2cc(NCCc3c(F)cc(Br)cc3F)ncn2)sc1C(N)=O [Example 281, 5-{6-[2-(4-Bromo-2,6-difluoro-phenyl)-ethylamino]-pyrimidin-4-yl}-3-ethyl-thiophene-2-carboxylic acid amide] | 37 nM | 81 nM | 56 nM | 47 nM
CCc1cc(-c2cc(NCCc3c(F)cc(Br)cc3F)ncn2)ccc1C(=O)OC [Example 245, 4-{6-[2-(4-Bromo-2,6-difluoro-phenyl)-ethylamino]-pyrimidin-4-yl}-2-ethyl-benzoic acid methyl ester] | 307 nM | 6720 nM | 392 nM | 4630 nM
CCOc1cc(-c2cc(NCCc3cc(F)c(Br)cc3C)ncn2)sc1-c1noc(=O)[nH]1 [Example 111, 3-(5-{6-[2-(4-Bromo-5-fluoro-2-methyl-phenyl)-ethylamino]-pyrimidin-4-yl}-3-ethoxy-thiophen-2yl)-[1,2,4]oxadiazol-5(4H)-one] | 6 nM | 26 nM | 31 nM | 137 nM
CCOc1cc(-c2cc(NCCc3ccc(Br)cc3OC)ncn2)sc1-c1noc(=O)[nH]1 [Example 126, 3-(5-{6-[2-(4-Bromo-2-methoxy-phenyl)-ethylamino]-pyrimidin-4-yl}-3-ethoxy-thiophen-2yl)-[1,2,4]oxadiazol-5(4H)-one] | 7 nM | 20 nM | 22 nM | 74 nM
CC(C)Cc1cc(-c2cc(NCCc3c(F)cc(Br)cc3F)ncn2)ccc1CC(=O)O [Example 244, (4-{6-[2-(4-Bromo-2,6-difluoro-phenyl)-ethylamino]-pyrimidin-4-yl}-2-isobutyl-phenyl)-acetic acid] | 251 nM | 280 nM | 364 nM | 1130 nM
CCOc1cc(-c2cc(NCCc3cc(Br)ccc3OC)ncn2)sc1C(=O)O [Example 71, 5-{6-[2-(5-Bromo-2-methoxy-phenyl)-ethylamino]-pyrimidin-4-yl}-3-ethoxy-thiophene-2-carboxylic acid] | 100 nM | 53 nM | 85 nM | 70 nM
CCOc1cc(-c2cc(NCCc3c(F)cc(Br)cc3F)ncn2)ccc1-c1nnn[nH]1 [Example 23, [2-(4-Bromo-2,6-difluoro-phenyl)-ethyl]-{6-[3-ethoxy-4-(1H-tetrazol-5yl)-phenyl]-pyrimidin-4-yl}-amine] | 60 nM | 61 nM | 73 nM | 28 nM
CCOc1cc(-c2cc(NCCc3cccc(OC)c3)ncn2)sc1C(=O)O [Example 59, 3-Ethoxy-5-{6-[2-(3-methoxy-phenyl)-ethylamino]-pyrimidin-4-yl}-thiophene-2-carboxylic acid] | 169 nM | 51 nM | 359 nM | 131 nM
COc1cc(-c2cc(NCCc3c(F)cc(Br)cc3F)ncn2)sc1C(=O)O [Example 176, 5-{6-[2-(4-Bromo-2,6-difluoro-phenyl)-ethylamino]-pyrimidin-4-yl}-3-methoxy-thiophene-2-carboxylic acid] | 75 nM | 6 nM | 22 nM | 9 nM
